Here are results for 2 molecules from publication PMC9499463, “Potent Chlorambucil-Platinum(IV) Prodrugs” (International Journal of Molecular Sciences, 2022).

Data set [1] concerns MCF-7 breast. To be noted: MCF-7 cell line; read-out: GI50 MCF-7 of prodrug designed by Ma et al.; cited from earlier work.
Data set [2] has as its system U87 glioblastoma. Briefly: MTT growth inhibition assay, 72 h. The class given is cell-based, human. To be noted: Homo sapiens.
Data set [3] has as its system A2780 ovarian. Briefly: MTT growth inhibition assay, 72 h. The class given is cell-based, human. To be noted: Homo sapiens, A2780.
Data set [4] relates to SJ-G2 glioblastoma. The experiment in a line: MTT growth inhibition assay, 72 h. The class given is cell-based, human. To be noted: Homo sapiens, SJ-G2.
Data set [5] has as its system MIA pancreas. Briefly: MTT growth inhibition assay, 72 h. The class given is cell-based, human. To be noted: Homo sapiens; MTT, 72 h.
Data set [6] deals with HT29 colon. Briefly: MTT growth inhibition assay, 72 h. The class given is cell-based, human. To be noted: Homo sapiens, HT-29; MTT, 72 h.
Data set [7] has as its system panel of cell lines. Briefly: MTT growth inhibition assay, 72 h, over the cell line panel. The class given is cell-based, human. To be noted: Homo sapiens.
For data set [8], the system named is ADDP ovarian (cisplatin-resistant A2780 clone). The experiment in a line: MTT growth inhibition assay, 72 h. The class given is cell-based, human. To be noted: Homo sapiens, Cisplatin-resistant A2780; MTT, 72 h.
For data set [9], the system named is A431 skin. Briefly: MTT growth inhibition assay, 72 h. The class given is cell-based, human. To be noted: Homo sapiens, A-431.
The subject of data set [10] is MCF-7 breast. The experiment in a line: MTT growth inhibition assay, 72 h. The class given is cell-based, human. To be noted: Homo sapiens, MCF7; MTT, 72 h.
The subject of data set [11] is BE2-C neuroblastoma. The experiment in a line: MTT growth inhibition assay, 72 h. The class given is cell-based, human. To be noted: Homo sapiens, BE(2)-C.
Data set [12] can be described thus: Lipophilicity by HPLC (log kw). The class given is physicochemical. To be noted: chromatographic lipophilicity index, extrapolated to 100% d.i.H2O. From the text: For lipophilicity measurements, HPLC was utilized instead of the traditional shake-flask method, as described. A few studies have also reported the important and effective use of HPLC to measure the lipophilicity of compounds [66, 67]. Each complex was eluted under several isocratic ratios. A standard curve was then generated to calculate the log value of the capacity factor (log k) according to eqn (1). Following eqn (2), the percentage of organic solvent (CH3CN) in the mobile phase from each isocratic run was plotted against […] (Figure S34). Since log kw is the chromatographic lipophilicity index or measure of lipophilicity of the complex, a higher value corresponds to greater lipophilicity. Since PCLB, 5CLB, and 56CLB are structurally related, there were no significant variations in lipophilicity noted based on the calculated log kw values (Table 4). It is evident that PCLB is the least lipophilic of the group, with a calculated log kw value of 1.80, which is likely due to the absence of methyl groups in its phenanthroline system. 5CLB and 56CLB were the most lipophilic of the group with calculated log kw values of 1.90 and 1.87, respectively, and this is due to the presence of methyl substituents in their phenanthroline systems. […] Additionally, the chromatographic lipophilicity index of CLB was also measured using the abovementioned method, with a calculated log kw of 1.88, which is within the range observed for PCLB, 5CLB, and 56CLB. However, CLB was approximately 1-fold more lipophilic than PCLB. […] The order of increasing lipophilicity is […].
For lipophilicity measurements, analytical HPLC was utilized. Elution profiles were acquired on an Agilent Technologies 1260 Infinity instrument equipped with a Phenomenex Onyx^TM Monolithic C18-reverse phase column (100 × 4.6 mm, 5 µm pore size). The mobile phase consisted of solvents, A (0.06% TFA in d.i.H2O) and B (0.06% TFA in CH3CN/d.i.H2O (90:10)). Potassium iodide was used as an external dead volume marker to determine the dead time of the column. Retention times (TR) were measured at varying isocratic ratios ranging from 42% to 48% of solvent B at 1 mL/min. An injection volume of 10 µL was utilized. Capacity factors were determined according to Equation (1):(1) k=(TR−T0)/T0, where k is the capacity factor, TR is the retention time of the analyte, and T0 represents the dead time. A minimum of four different mobile compositions were used for each complex to calculate k. A linear plot was generated of log k against the concentration of CH3CN in the mobile phase to determine the value of log kw expressed by Equation (2):(2) logk=Sφ+logkw, where S is the slope, φ is the concentration of the CH3CN in the mobile phase and log kw represents the capacity factor of the complex in 100% d.i.H2O. […]

Data set [13] relates to HT29 colon cells. Briefly: ROS detection assay (DCFH-DA fluorescence). The class given is cell-based, human. To be noted: compounds at GI50 concentration, TBHP and NAC 20 μM. As to the method: HT29 colon cells were stained by DCFH-DA and then treated with the compounds at each specific GI50 concentration. Upon ROS production, the DCFH-DA produced […], a fluorescent product. The measured fluorescence was, therefore, proportional to the produced ROS. […] 56CLB at 24 h reported 395 RFU, 437 RFU at 48 h, and 558 RFU at 72 h (Table 6, Figure 14 and Figure S42), respectively, showing a significant production of ROS in comparison to control cells. 5CLB at 24 h produced 337 RFU, 324 RFU at 48 h, and 376 RFU at 72 h (Table 6, Figure 14 and Figure S42), respectively.
To investigate for the presence of ROS in treated cells, DCFDA/H2DCFDA-cellular ROS Assay Kit (Abcam, Cambridge, MA, USA) was used, as described. A total of 25,000 cells/mL of HT29 cells in DMEM were seeded in 96-well plates. Cells were washed with 1X kit buffer, then stained with 25 μM 2’,7’-dichlorofluorescein diacetate (DCFH-DA) and incubated for 45 min. DCFH-DA was then removed, and cells were then re-washed with 1X kit buffer, after which phenol red free media was added. Cells were then treated with GI50 drug concentration for each complex. The plates were directly scanned to measure fluorescence (relative fluorescence units (RFU)) at different time points using the Glo-Max®-Multimode microplate reader (Promega Corporation, Alexandra, VIC, Australia) at an excitation/emission of 485/535 nm. To generate the positive control (20 μM tert-butyl hydroperoxide (TBHP)), cells were washed with 1X kit buffer, and stained with DCFDA (25 μM) for 45 min. DCFDA was then removed and TBHP was added in phenol red free media. The plate was scanned to measure the RFU at different time points as mentioned above. The same method applies for the negative control treated with 20 μM N-acetylcysteine (NAC).

In data set [14] the test system is Du145 prostate. The experiment in a line: MTT growth inhibition assay, 72 h. The class given is cell-based, human. To be noted: Homo sapiens, DU-145; MTT, 72 h.
Data set [15] has as its system non-tumor-derived MCF10A breast line. The experiment in a line: MTT growth inhibition assay, 72 h. The class given is cell-based, human. To be noted: Homo sapiens, MCF-10A.
Data set [16] has as its system H460 lung. Briefly: MTT growth inhibition assay, 72 h. The class given is cell-based, human. To be noted: Homo sapiens, NCI-H460.

The structures appear in SMILES notation. “And” between values parts separate entries of the source, which are not always exact repeats. Equal values may be shown once. Read-outs that look alike come from different tables or passages of the source.

For `N.N.O=C([O-])CCCc1ccc(N(CCCl)CCCl)cc1.O=C([O-])CCCc1ccc(N(CCCl)CCCl)cc1.[Cl-].[Cl-].[Pt+4]`, the GI50 in data set [1] is 2.19 ± 2e-05 µM.

On to `O=C(O)CCCc1ccc(N(CCCl)CCCl)cc1` [CLB, 4-[bis(2-chloroethyl)amino] phenylbutyric acid, reference compound], for which the GI50 in [2] is 38 µM; in [3], 4.3 ± 0.0004 µM; in data set [4], 11 µM; in data set [5], 40 µM; in [6], 39 µM; in data set [7] (average over all cell lines tested, read-out: Average GI50 Values), 22 µM. Also, the GI50 in data set [7] (range over the cell lines named in the sentence, read-out: GI50 values ranging (over cell lines)) was 4.3 to 40 µM; in data set [8], 16 µM; in [9], 35 µM; in [10] it was 11 µM; in data set [11] it was 20 µM; in [14], 27 µM. Also, the GI50 in data set [15] amounted to 17 µM; in data set [16], 11 µM. For the same molecule, in data set [12], the log kw was 1.88. In addition, the “ROS Production” value in data set [13] (24 h) was 110 ± 3 RFU; in data set [13] (48 h), 190 RFU and 190 ± 5 RFU; in [13] (72 h), 204 ± 4 RFU.
